Laboratory results reported in publication PMC6934184, “Selective DNA-PKcs inhibition extends the therapeutic index of localized radiotherapy and chemotherapy” (The Journal of Clinical Investigation, 2019).

Molecular target: T1, EPHA1 (Homo sapiens, UniProt P21709)
T1 construct: purchased Thermo Fisher Scientific (Life Technologies) SelectScreen
Assay: SelectScreen Z'LYTE
Assay type: biochemical
Summary of the method: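 SelectScreen broad panel; activity (Z'LYTE, Adapta) plus binding formats. ATP: Km app for CSF1R Z'LYTE; 10 for CAMK1 Adapta. Readout = % per kinase.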

T1 sequence (P21709 26-976): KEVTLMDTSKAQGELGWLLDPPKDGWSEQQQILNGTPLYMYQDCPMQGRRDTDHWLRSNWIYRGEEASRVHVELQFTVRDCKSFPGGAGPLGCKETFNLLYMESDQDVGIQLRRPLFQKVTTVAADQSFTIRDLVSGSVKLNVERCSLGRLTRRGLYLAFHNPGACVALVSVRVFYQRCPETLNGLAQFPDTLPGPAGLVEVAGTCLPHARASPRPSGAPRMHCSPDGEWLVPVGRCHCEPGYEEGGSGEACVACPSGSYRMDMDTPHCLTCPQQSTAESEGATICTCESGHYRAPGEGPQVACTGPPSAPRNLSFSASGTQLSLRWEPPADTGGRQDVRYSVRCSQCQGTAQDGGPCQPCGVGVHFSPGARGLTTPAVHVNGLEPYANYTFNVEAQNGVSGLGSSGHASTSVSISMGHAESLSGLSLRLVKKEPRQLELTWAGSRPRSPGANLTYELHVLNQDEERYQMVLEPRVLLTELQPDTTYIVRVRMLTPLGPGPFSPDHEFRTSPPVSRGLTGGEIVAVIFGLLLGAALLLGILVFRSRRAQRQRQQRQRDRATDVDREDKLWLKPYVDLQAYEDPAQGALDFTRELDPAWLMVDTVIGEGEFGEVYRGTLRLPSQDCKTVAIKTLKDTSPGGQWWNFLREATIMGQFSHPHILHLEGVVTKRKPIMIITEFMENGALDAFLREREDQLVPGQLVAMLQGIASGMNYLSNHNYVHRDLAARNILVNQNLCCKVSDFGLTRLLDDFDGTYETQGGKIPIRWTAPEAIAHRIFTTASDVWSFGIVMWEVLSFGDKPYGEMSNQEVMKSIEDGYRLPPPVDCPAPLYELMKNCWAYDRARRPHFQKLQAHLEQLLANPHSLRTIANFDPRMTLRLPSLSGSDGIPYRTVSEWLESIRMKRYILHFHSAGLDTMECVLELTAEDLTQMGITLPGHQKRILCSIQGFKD

For `CN(C(=O)CN1CCOCC1)c1ccc2sc3c(-c4cccc5c(=O)cc(N6CC7CCC(C6)O7)oc45)cccc3c2c1` [NU5455], the inhibition at 1 µM was 2.7%.
